Results reported in patent publication EP1144011B1, “PRODRUG COMPOUNDS AND PROCESS FOR PREPARATION THEREOF” (Coulter Pharmaceutical, Inc., priority 1998, dated 2000).
Square brackets hold non-standard residues; d marks the D form. Peptide text beside a SMILES is read from it. * marks the point of attachment. Sta = CC(C)C[C@H](N)[C@@H](O)CC(=O)O; Isovaleryl = CC(C)CC(=O)*

Assays:
Carcinoma cell trouase = experiment: Inhibition and re-activation of carcinoma cell trouase; format: biochemical; conditions: for inhibition of trouase: carcinoma cell trouase
[1] = tested on: MCF 7/6 (breast carcinoma) cell homogenate; experiment: Compound screen: cleavage by MCF 7/6 cell homogenate, HPLC; format: biochemical
Method: Based on HPLC analysis of digestion products, activation of peptidyl-toxin to free toxin occurs via a series of enzyme catalyzed cleavage reactions. […] Initial endopeptidase cleavage occurs between the AA^3 (P1) and AA^2(P1') amino acids to yield alanyl-leucyl-doxorubicin.
(§1) Test samples were incubated at 37°C for 2 hr with the three different preparations of carcinoma enzyme and with whole blood, extracted with acetonitrile, and analyzed by HPLC using fluorescence detection. With few exceptions, results for carcinoma enzyme cleavage were the same for a partially purified fraction from HeLa cells, MFC 7/6 cell homogenate, or MCF 7/6 conditioned media.
MCF 7/6 cells were grown to confluence in a serum free medium containing DMEM:F12 (1:1), 50 mg/L bovine serum albumin, ITS-X, and Lipid Concentrate. 100 mL of cells were harvested by centrifugation at 4°C 10,000xg, for 20 min and decanting the supernatant. The pellet was resuspended in 2 mL phosphate buffered saline (Gibco) and centrifuged at 18,000xg for 10 min. […]
(§2) For HPLC analysis 50 µL of sample was injected on a 4.6 x 50 mm 2µ TSK Super-ODS chromatography column at 40°C and eluted with a 3 minute linear gradient from 26% to 68% acetonitrile in aqueous 20 mM ammonium acetate pH 4.5 buffer at 2 mL/min. Detection was by fluorescence using an excitation wavelength of 235 nm and an emission wavelength of 560 nm. […]

[2] = tested on: estrogen-dependent MCF-7/6 mammary tumor; experiment: Nude mouse xenograft model, MCF-7/6; format: in vivo; conditions: MCF-7/6 xenograft
[3] = Acute toxicity after intravenous injection in mice; format: in vivo; conditions: iv bolus of 250 mg/kg (Dox-HCl eq.), three to five mice per group
[4] = tested on: adriamycin-resistant colorectal carcinoma CXF280/10; experiment: Nude mouse xenograft model, CXF280/10; format: in vivo; conditions: CXF280/10 xenograft
[5] = tested on: LS-174T human colorectal carcinoma; experiment: Nude mouse xenograft model, LS-174T
[6] = Supporting toxicity studies; conditions: doses of up to 106.8 mg/kg
[7] = tested on: MCF 7/6 (breast carcinoma) conditioned media; experiment: Compound screen: cleavage by MCF 7/6 conditioned media, HPLC; format: biochemical; conditions: 2 hr at 37°C
Method: as §1
MCF 7/6 cells were grown to confluence in DMEM/F12 (1:1) medium containing 10 % fetal bovine serum, 0.05% (w/v) L-glutamine, 250 IU/mL penicillin, and 100 µg/mL streptomycin. Cells were then washed twice with phosphate buffered saline and incubated 24 hr at 5% CO2, 37°C, in DMEM/F12 (1:1), 0.02% BSA, ITS-X. The conditioned media was then decanted and, using a stirred cell apparatus with a YM10 (10.000 MW cutoff) ultrafiltration membrane(Millipore), exchanged once with 10 mM HEPES buffer, pH 7.2 and concentrated twenty-fold. This solution was stored in aliquots at-20°C for use in the compound screen. […]
as §2

trouase [8] = experiment: Compound screen: cleavage by HeLa cell anion exchange fraction pool (partially purified trouase), HPLC; format: biochemical, human; conditions: 2 hr at 37°C
Method: as §1
Thirty billion commercially produced HeLa Cells (human cervical carcinoma, Computer Cell Culture Center, Seneffe, Belgium) were homogenized with a sonicator and with a Dounce homogenizer in 108 mL of aqueous lysis solution. […]
A portion of the ultracentrifugation supernatant was diluted 2-fold with a 20 mM triethanolamine-HCl pH 7.2 buffer containing 0.01% (w/v) Triton X-100 and 0.02% (w/v) sodium azide (equilibration buffer). […] Its transformation into L-alanyl-L-leucyl-doxorubicin was quantified by reverse phase high performance liquid chromatography utilizing fluorescence detection of the anthracycline moiety. […]
as §2

trouase [9] = experiment: Trouase cleavage of N-capped peptidyl-daunorubicin (defining characteristic); format: biochemical; conditions: under appropriate assay conditions
Description: Trouase is the enzyme which is thought to be critical for specific activation of prodrug at the target tissue.

[10] = Aggregation: filtration through Centricon filter units of different MWCO; format: physicochemical; conditions: 17.4 µMol/ml in distilled water, 2 hr at 1500g; for 3000 MWCO Filt.: quantitated at λ475 nm
Description: Sci., 73(6):766-770 (1984). Confalonieri, C. et al., The use of new laser particle sizer and shape analyser to detect and evaluate gelatinous microparticles suspended in reconstituted anthracycline infusion solutions, J. Pharmaceut. Biomed. Anal., 9(1):1-8 (1991). […] Each filter unit was centrifuged for 2 hr at 1500g force. […]

[11] = subcutaneous LS174T tumors, five weekly intravenous doses of 57, 64 and 71 mg/kg, versus vehicle-treated controls

## manganese
Carcinoma cell trouase
  concentration that re-activates EDTA inactivated trouase: 50 to 1000 µM

## CC(C)CC(=O)N[C@H](C(=O)N[C@H](C(=O)N[C@@H](CC(C)C)[C@@H](O)CC(=O)N[C@@H](C)C(=O)N[C@@H](CC(C)C)[C@@H](O)CC(=O)O)C(C)C)C(C)C [pepstatin] (Isovaleryl-VV[Sta]A[Sta]-OH)
Carcinoma cell trouase
  inhibition of trouase: not

## c1cnc2c(c1)ccc1cccnc12 [1,10-phenanthroline]
Carcinoma cell trouase
  inhibition of trouase: inhibited

## cobalt
Carcinoma cell trouase
  concentration that re-activates EDTA inactivated trouase: 50 to 100 µM

## CC(C)C[C@H](NC(=O)[C@H]1O[C@@H]1C(=O)O)C(=O)NCCCCN=C(N)N [E64]
Carcinoma cell trouase
  inhibition of trouase: not

## COc1cccc2c1C(=O)c1c(O)c3c(c(O)c1C2=O)CC(O)(C(=O)CO)CC3OC1CC(NC(=O)C(CC(C)C)NC(=O)C(C)NC(=O)C(CC(C)C)NC(=O)CCNC(=O)CCC(=O)O)C(O)C(C)O1 (stereo not drawn) [succinyl-β-Ala-Leu-Ala-Leu-Dox]
[1]; extracts of carcinoma cells or carcinoma cell conditioned media, two steps, at least two enzymes
  activation of peptidyl-toxin (digestion products by HPLC): converted to leucyl-doxorubicin
[2]
  inhibiting the growth of human tumors: efficacious
[3]
  survival: all animals survived up to 8 days
[4]
  inhibiting the growth of human tumors: efficacious
[5]; LS-174T xenograft
  inhibiting the growth of human tumors: efficacious
[5]; LS-174T xenograft model
  toxicity at efficacious doses: without significant toxicity
[5]; doses of 49, 57 and 64 mg/kg
  efficacy in inhibiting LS-174T tumor compared to doxorubicin at 3.0 mg/kg and saline: superior efficacy
[5]; repeat dosing, LS174T model
  body weight: Some dose-dependent body weight loss
[5]; repeat-dose levels and frequencies that demonstrated anti-tumor efficacy
  safety and tolerability: safe and well-tolerated
[5]; [11]
  Mean Day of Survival (MDS): significant, dose-dependent, replicable extension
  tumor volume: decreased size of the tumor
[6]
  kidney toxicity and myelosuppression: not observed

## CC(=O)N[C@@H](CC(C)C)C(=O)N[C@@H](CC(C)C)C(=O)N[C@H](C=O)CCCNC(=N)N [leupeptin]
Carcinoma cell trouase
  inhibition of trouase: not

## CCCNC(=O)[C@H]1O[C@@H]1C(=O)N[C@H](C(=O)N1CCC[C@H]1C(=O)O)[C@@H](C)CC [CA074]
Carcinoma cell trouase
  inhibition of trouase: not

## COc1cccc2c1C(=O)c1c(O)c3c(c(O)c1C2=O)C[C@@](O)(C(C)=O)C[C@@H]3O[C@H]1C[C@H](NC(=O)[C@H](CC(C)C)NC(=O)[C@H](C)NC(=O)[C@H](CC(C)C)NC(=O)[C@H](C)NC(=O)CCC(=O)O)[C@H](O)[C@H](C)O1 [P2 L-alanine compound]
[1]; 2 hr at 37°C
  extent (rate) of cleavage by cell homogenate versus the P2 β-alanine compound: 1.3 fold
[7]
  extent of cleavage by conditioned medium versus the P2 β-alanine compound: about the same
Trouase [8]
  extent of cleavage with the partially purified trouase preparation versus the P2 β-alanine compound: 0.6 fold

## zinc
Carcinoma cell trouase
  re-activation of EDTA inactivated trouase: not

## O=C(O)CN(CCN(CC(=O)O)CC(=O)O)CC(=O)O [EDTA]
Carcinoma cell trouase
  inhibition of trouase: inhibited

## aminoethylbenzene-sufonate
Carcinoma cell trouase
  inhibition of trouase: not

## COc1cccc2c1C(=O)c1c(O)c3c(c(O)c1C2=O)CC(O)(C(=O)CO)CC3OC1CC(NC(=O)C(CC(C)C)NC(=O)C(C)NC(=O)C(CC(C)C)NC(=O)CCNC(=O)CCCC(=O)O)C(O)C(C)O1 (stereo not drawn) [glutaryl βAlaLeuAlaLeu-Dox, Gl-β-Ala-Leu-Ala-Leu-Dox]
[3]
  survival: all animals survived up to 8 days

## CC[C@H](C)[C@H](NC(=O)CCNC(=O)CCC(=O)O)C(=O)N[C@@H](C)C(=O)N[C@@H](CC(C)C)C(=O)N[C@H]1C[C@H](O[C@H]2C[C@](O)(C(C)=O)Cc3c(O)c4c(c(O)c32)C(=O)c2c(OC)cccc2C4=O)O[C@@H](C)[C@H]1O [succinyl-βAlalleAlaLeu-Daunorubicin]
Trouase [9]
  trouase activity relative to succinyl-βAlaLeuAlaLeu-Daunorubicin: at least twenty-fold less active

## COc1cccc2c1C(=O)c1c(O)c3c(c(O)c1C2=O)C[C@@](O)(C(=O)CO)C[C@@H]3O[C@H]1C[C@H](N)[C@H](O)[C@H](C)O1 [doxorubicin]
[10]; passing through filter
  3000 MWCO Filt.: 81%
  10000 MWCO Filt.: 82%
  50000 MWCO Filt.: 93%
[10]; passing through filter, listed as Dox
  3000 MWCO Filt.: 81%
[10]; retained
  3000 MWCO Ret.: 10%
  10000 MWCO Ret.: 2%
  50000 MWCO Ret.: 0.5%
[5]; repeated administration
  Dose limiting toxicity (cardiotoxicity and myelosuppression), dose at which observed: ≥ 3 mg/kg

## cupric cations
Carcinoma cell trouase
  re-activation of EDTA inactivated trouase: not

## CO[C@@H]1[C@H](OC(=O)/C=C/C=C/C=C/C=C/C(=O)O)CC[C@]2(CO2)[C@H]1[C@@]1(C)O[C@@H]1CC=C(C)C [fumagillin]
Carcinoma cell trouase
  inhibition of trouase: not

## COc1cccc2c1C(=O)c1c(O)c3c(c(O)c1C2=O)C[C@@](O)(C(C)=O)C[C@@H]3O[C@H]1C[C@H](NC(=O)[C@H](CC(C)C)NC(=O)[C@H](C)NC(=O)[C@H](CC(C)C)NC(=O)CCNC(=O)CCC(=O)O)[C@H](O)[C@H](C)O1 [succinyl-βAlaLeuAlaLeu-Daunorubicin, Suc-β-Ala-Leu-Ala-Leu-Dnr]
Trouase [9]
  cleavage by trouase: readily cleaves
